Reference: publication PMC4374931 (PLoS ONE, 2015)
Where a name gives a salt, the structure may show the parent alone. Read-outs that look alike come from different tables or passages of the source.

Columns and labels:
in vitro = type: cell-based; settings: human
Procedure: (§1) AIZ-AR cells were seeded in 96-well plates at density 5x10^4 cells per well. […] Following the incubation, MTT assay was measured spectrophotometrically at 540 nm using Tecan Infinite M2000 plate luminometer.

AIZ-AR cells = experiment: in vitro; type: cell-based; settings: 24 h, MTT
Procedure: as §1

human androgen receptor [1] = molecular target: T1, human androgen receptor (Homo sapiens, UniProt P10275); experiment: Gene reporter assay in AIZ-AR cells, agonist mode (luciferase); type: cell-based; settings: for effect on luciferase activity in agonist mode: 24 h
Procedure: (§2) AIZ-AR cells were seeded in 96-well plates at density 5x10^4 cells per well. […] After the treatments, cells were lysed and luciferase activity was measured in 96-well plate format using Tecan Infinite M2000 plate luminometer.
(§3) Dose-response analyses assays were performed in two different experimental layouts. […] Where appropriate, IC50 (half maximal inhibitory concentration) values were calculated.

androgen receptor [2] = molecular target: androgen receptor; set-up: method as in Sedlak et al.; settings: published data; ref Sedlak et al.; cited from earlier work
androgen receptor [3] = molecular target: androgen receptor; set-up: method as in Wilkinson et al.; settings: published data; ref Wilkinson et al.; cited from earlier work
human androgen receptor [4] = molecular target: T1, human androgen receptor; experiment: Gene reporter assay in AIZ-AR cells, antagonist mode with testosterone (10 nM); type: cell-based
Procedure: as §2, §3

human androgen receptor [5] = molecular target: T1, human androgen receptor; experiment: Gene reporter assay in AIZ-AR cells, antagonist mode with DHT (100 nM); type: cell-based; settings: antagonist mode, 24 h
Procedure: as §2, §3

[6] = log c -5, 24 h, MTT, read-out: % of viability
[7] = log c -6, 24 h, MTT, read-out: % of viability
[8] = log c -7, 24 h, MTT, read-out: % of viability
[9] = log c -8, 24 h, MTT, read-out: % of viability
[10] = log c -9, 24 h, MTT, read-out: % of viability
[11] = log c -10, 24 h, MTT, read-out: % of viability

T1 sequence (P10275 whole entry): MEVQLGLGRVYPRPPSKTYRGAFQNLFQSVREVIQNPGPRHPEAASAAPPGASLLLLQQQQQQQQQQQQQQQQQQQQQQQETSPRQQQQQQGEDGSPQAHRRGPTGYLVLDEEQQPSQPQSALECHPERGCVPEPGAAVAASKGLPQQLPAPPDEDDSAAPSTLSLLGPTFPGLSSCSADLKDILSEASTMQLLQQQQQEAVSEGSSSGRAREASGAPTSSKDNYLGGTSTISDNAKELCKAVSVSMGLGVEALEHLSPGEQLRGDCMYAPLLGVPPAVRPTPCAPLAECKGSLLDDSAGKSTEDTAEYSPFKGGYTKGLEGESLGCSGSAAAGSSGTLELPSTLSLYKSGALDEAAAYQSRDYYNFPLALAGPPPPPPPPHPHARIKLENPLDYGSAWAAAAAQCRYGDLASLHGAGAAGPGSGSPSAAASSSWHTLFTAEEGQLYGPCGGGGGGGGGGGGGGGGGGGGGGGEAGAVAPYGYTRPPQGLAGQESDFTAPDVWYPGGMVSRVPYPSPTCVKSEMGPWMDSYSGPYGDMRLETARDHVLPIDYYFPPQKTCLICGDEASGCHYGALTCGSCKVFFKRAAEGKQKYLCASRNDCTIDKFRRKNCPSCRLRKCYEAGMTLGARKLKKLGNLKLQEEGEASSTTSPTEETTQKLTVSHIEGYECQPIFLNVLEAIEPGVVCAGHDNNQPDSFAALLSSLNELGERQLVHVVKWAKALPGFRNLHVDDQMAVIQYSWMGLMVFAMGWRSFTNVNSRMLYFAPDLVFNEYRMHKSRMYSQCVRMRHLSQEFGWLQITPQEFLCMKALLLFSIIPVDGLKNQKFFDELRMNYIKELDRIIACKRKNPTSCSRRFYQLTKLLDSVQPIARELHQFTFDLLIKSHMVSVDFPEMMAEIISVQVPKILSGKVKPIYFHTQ

Structure (SMILES)	viability at 24 h, 0.1 nM (in vitro) [%]	viability at 24 h, 1 nM (in vitro) [%]	viability at 24 h, 10 nM (in vitro) [%]	viability at 24 h, 100 nM (in vitro) [%]	viability at 24 h, 1 μM (in vitro) [%]	viability at 24 h, 10 μM (in vitro) [%]	further results
C[C@]12C[C@H](O)[C@H]3[C@@H](CCC4=CC(=O)CC[C@@]43C)[C@@H]1CC[C@@H]2C(=O)CO [Corticosterone, corticosterone]	100	104	107 ± 2.5	111 ± 5.7	109 ± 6.5	105 ± 3.4	
O=C(c1ccc(OCCN2CCCCC2)cc1)c1c(-c2ccc(O)cc2)sc2cc(O)ccc12 [Raloxifene hydrochloride, raloxifene hydrochloride]	100	103 ± 8.5	99.8 ± 4.3	106 ± 6.8	95.9 ± 10.3	7.1 ± 0.2	
CC(=O)[C@H]1CC[C@H]2[C@@H]3CCC4=CC(=O)CC[C@]4(C)[C@H]3CC[C@]12C [17α-progesterone]							% of viability (AIZ-AR cells; log c -5): 92.0 ± 3.7%; % of viability (AIZ-AR cells; log c -6): 92.0 ± 3.7%; % of viability (AIZ-AR cells; log c -7): 95.0 ± 4.0%; % of viability (AIZ-AR cells; log c -8): 95.0 ± 4.0%; % of viability (AIZ-AR cells; log c -9): 98.2 ± 2.6%
CC#C[C@]1(O)CC[C@H]2[C@@H]3CCC4=CC(=O)CCC4=C3[C@@H](c3ccc(N(C)C)cc3)C[C@@]21C [Mifepristone, mifepristone]	100	104 ± 2.8	102 ± 9.7	104 ± 18.2	94.7 ± 9.5	41.7 ± 1.1	
C[C@H]1C[C@H]2[C@@H]3CCC4=CC(=O)C=C[C@]4(C)[C@@]3(F)[C@@H](O)C[C@]2(C)[C@@]1(O)C(=O)CO [Betamethasone, betamethasone]	100	105 ± 4	110 ± 7.3	109 ± 7.9	108 ± 14.6	101 ± 9.9	
CC/C(=C(/CC)c1ccc(O)cc1)c1ccc(O)cc1 [Diethylstilbestrol, diethylstilbestrol]	100	101 ± 5.1	102 ± 7.6	102 ± 5.1	98 ± 4.3	99.9 ± 7	
CC(=O)O[C@]1(C(C)=O)CC[C@H]2[C@@H]3C=C(Cl)C4=CC(=O)[C@@H]5C[C@@H]5[C@]4(C)[C@H]3CC[C@@]21C [Cyproterone acetate, cyproterone acetate]	100	105 ± 1.7	105 ± 2	106 ± 5.7	99.4 ± 7.8	89.5 ± 6.6	
C[C@H]1C[C@H]2[C@@H]3CCC4=CC(=O)C=C[C@]4(C)[C@@]3(Cl)[C@@H](O)C[C@]2(C)[C@@]1(O)C(=O)CO [Beclomethasone, beclomethasone]							% of viability (AIZ-AR cells; log c -5): 92.3 ± 2.1%; % of viability (AIZ-AR cells; log c -6): 98.4 ± 0.9%; % of viability (AIZ-AR cells; log c -7): 109.2 ± 5.7%; % of viability (AIZ-AR cells; log c -8): 106.5 ± 6.1%; % of viability (AIZ-AR cells; log c -9): 99.9 ± 3.9%
C[C@]12C=CC(=O)C=C1CC[C@H]1[C@@H]3C[C@@H](O)[C@](O)(C(=O)CO)[C@@]3(C)C[C@H](O)[C@@]12F [Triamcinolone, triamcinolone]	100	101 ± 4.2	100 ± 8.2	105 ± 11.4	103 ± 11	101 ± 5.4	
C[C@]12CCC(=O)C=C1CC[C@@H]1[C@@H]2[C@@H](O)C[C@]2(C=O)[C@@H](C(=O)CO)CC[C@@H]12 [Aldosterone, aldosterone]							effect on luciferase activity in agonist mode (human androgen receptor [1]): did not significantly increased luciferase activity; Log EC50 (human androgen receptor [1]; Clone 8, 24 h): -6.03 ± 0.04; Log EC50 (human androgen receptor [1]; Clone 14, 24 h): -6.11 ± 0.02; viability at 24 h, 10 μM (in vitro; [6]): 97 ± 5.4%; viability at 24 h, 1 μM (in vitro; [7]): 98.6 ± 0.8%; viability at 24 h, 100 nM (in vitro; [8]): 99 ± 1.4%; viability at 24 h, 10 nM (in vitro; [9]): 99.4 ± 1%; viability at 24 h, 1 nM (in vitro; [10]): 110 ± 1.4%; viability at 24 h, 0.1 nM (in vitro; [11]): 100%; Literature Log EC50 (androgen receptor [2]): > -5.00; Literature Log EC50 (androgen receptor [3]): > -5.00
C[C@H]1C[C@@H]2[C@H]([C@@H](O)C[C@@]3(C)[C@H]2CC[C@]3(O)C(=O)CO)[C@@]2(C)C=CC(=O)C=C12 [Methyl-prednisolone, methylprednisolone]	100	107 ± 3.1	111 ± 9.4	105 ± 8.9	105 ± 14.3	105 ± 16	Log EC50 (human androgen receptor [1]; Clone 8, 24 h): -7.60 ± 0.43; Log EC50 (human androgen receptor [1]; Clone 14, 24 h): -7.48 ± 0.30; Literature Log EC50 (androgen receptor [3]): -8.75
C[C@]12CCC(=O)C[C@@H]1CC[C@@H]1[C@@H]2CC[C@]2(C)[C@@H](O)CC[C@@H]12 [5α-dihydrotestosterone]							viability at 24 h, 10 μM (in vitro; [6]): 104 ± 2%; viability at 24 h, 1 μM (in vitro; [7]): 108 ± 2.6%; viability at 24 h, 100 nM (in vitro; [8]): 114 ± 5.7%; viability at 24 h, 10 nM (in vitro; [9]): 109 ± 2.1%; viability at 24 h, 1 nM (in vitro; [10]): 108 ± 4.6%; viability at 24 h, 0.1 nM (in vitro; [11]): 100%
C[C@]12CCC(=O)C=C1CC[C@@H]1[C@@H]2[C@@H](O)C[C@@]2(C)[C@H]1CC[C@]2(O)C(=O)CO [Cortisol, cortisol]							potency weaker as compared to androgens (human androgen receptor [1]): 2–3 orders of magnitude; effect on luciferase activity in agonist mode (human androgen receptor [1]): induced luciferase activity; Log EC50 (human androgen receptor [1]; Clone 8, 24 h): -6.35 ± 0.11; Log EC50 (human androgen receptor [1]; Clone 14, 24 h): -6.49 ± 0.04; viability at 24 h, 10 μM (in vitro; [6]): 105 ± 10.4%; viability at 24 h, 1 μM (in vitro; [7]): 107 ± 12.3%; viability at 24 h, 100 nM (in vitro; [8]): 107 ± 13.2%; viability at 24 h, 10 nM (in vitro; [9]): 106 ± 9.1%; viability at 24 h, 1 nM (in vitro; [10]): 109 ± 4.1%; viability at 24 h, 0.1 nM (in vitro; [11]): 100%; Literature Log EC50 (androgen receptor [2]): > -5.00; Literature Log EC50 (androgen receptor [3]): -8.22
C[C@]12CC[C@@H]3c4ccc(O)cc4CC[C@H]3[C@@H]1CC[C@@H]2O [17β-estradiole, estradiol]	100	107 ± 4.3	110 ± 3.2	110 ± 6.2	110 ± 6.2	116 ± 16.4	
CC/C(=C(\c1ccc(O)cc1)c1ccc(OCCN(C)C)cc1)c1ccccc1 [4-hydroxytamoxifen]	100	101.8 ± 1	100 ± 5.4	104 ± 4.4	106 ± 3.8	9.2 ± 7.7	Log EC50 (human androgen receptor [1]; Clone 8, 24 h): > -5.00; Log EC50 (human androgen receptor [1]; Clone 14, 24 h): > -5.00; Log IC50 (Testosterone 10 nM) (human androgen receptor [4]; Clone 8, 24 h): > -5.00; Log IC50 (Testosterone 10 nM) (human androgen receptor [4]; Clone 14, 24 h): > -5.00; Log IC50 (DHT 100nM) (human androgen receptor [5]; Clone 8): > -5.00; Log IC50 (DHT 100nM) (human androgen receptor [5]; Clone 14): > -5.00; Literature Log EC50 (androgen receptor [2]): > -5.00; Literature Log EC50 (androgen receptor [3]): > -5.00
C#C[C@]1(O)CC[C@H]2[C@@H]3CCC4=Cc5oncc5C[C@]4(C)[C@H]3CC[C@@]21C [Danazol]	100	106 ± 1.5	108 ± 6.9	109 ± 10.6	108 ± 11.6	114 ± 12.1	
C[C@@H]1C[C@H]2[C@@H]3CCC4=CC(=O)C=C[C@]4(C)[C@@]3(F)[C@@H](O)C[C@]2(C)[C@@]1(O)C(=O)CO [Dexamethasone, dexamethasone]	100	99.8 ± 3.9	114 ± 2	112.7 ± 1.1	111 ± 3.4	108 ± 2.6	
C[C@]12C=CC(=O)C=C1CC[C@@H]1[C@@H]2[C@@H](O)C[C@@]2(C)[C@H]1CC[C@]2(O)C(=O)CO [Prednisolone, prednisolone]	100	100.7 ± 0.8	104 ± 3.7	107 ± 5.2	104 ± 5.2	101 ± 8.3	
CC(=O)S[C@@H]1CC2=CC(=O)CC[C@]2(C)[C@H]2CC[C@@]3(C)[C@@H](CC[C@@]34CCC(=O)O4)[C@H]12 [Spironolactone, spironolactone]	100	108 ± 1.5	112 ± 5.7	113 ± 10	98.9 ± 5.5	58.9 ± 2.5	
CC(=O)[C@H]1CC[C@H]2[C@@H]3CCC4=CC(=O)CC[C@]4(C)[C@H]3CC[C@]12C [Progesterone, progesterone]	100	98.7 ± 7.3	98.7 ± 12.2	99.8 ± 14.1	98.1 ± 13.9	91 ± 9.5	
CC/C(=C(\c1ccccc1)c1ccc(OCCN(C)C)cc1)c1ccccc1 [Tamoxifen citrate, tamoxifen citrate salt]	100	103 ± 4.3	107 ± 4.6	106 ± 3.8	88.5 ± 2.4	1.7 ± 0.8	
C[C@]12CC[C@H]3[C@@H](CCC4=CC(=O)CC[C@@]43C)[C@@H]1CC[C@@H]2O [Testosterone, testosterone]							viability at 24 h, 10 μM (in vitro; [6]): 105.3 ± 1%; viability at 24 h, 1 μM (in vitro; [7]): 105 ± 6.9%; viability at 24 h, 100 nM (in vitro; [8]): 103 ± 5.6%; viability at 24 h, 10 nM (in vitro; [9]): 108 ± 4.8%; viability at 24 h, 1 nM (in vitro; [10]): 108.6 ± 1%; viability at 24 h, 0.1 nM (in vitro; [11]): 100%
